Assay results published in ChEMBL document CHEMBL1122054, “Lysosomotropic agents. 4. Carbobenzoxyglycylphenylalanyl, a new protease-sensitive masking group for introduction into cells” (J Med Chem, 1982).
Where “and” joins values, the source holds several entries; their conditions need not be identical. Identical values can stand only once. Where a SMILES comes first, the peptide text is derived from it. The star is where a group is joined. Cbz = O=C(OCc1ccccc1)*

Columns and labels:
[1] = organism: Mus musculus; assay: Toxicity toward P-815 Mastocytoma cells after 5 hr was determined as percent of [51Cr]- release from labeled cells as a measure of cell death. at a concentration of 0.281 mM. (expt IV); type: functional
[2] = Compound in absence of MPM cell homogenate at pH 3 to isolate compound 4 (ng); type: ADME, cell-based
[3] = Compound in absence of MPM cell homogenate at pH 4.5 to isolate compound 4 (ng); type: ADME, cell-based
[4] = Compound in absence of MPM cell homogenate at pH 7 to isolate compound 4 (ng); type: ADME, cell-based
[5] = Compound treated with MPM cell homogenate at pH 4.5 to isolate compound 4 (ng); type: ADME, cell-based
[6] = tested on: MPM; assay: Compound in presence of MPM cells and in absence of inactivator at pH 8 to isolate compound 4 (ng); type: cell-based
[7] = organism: Mus musculus; assay: Toxicity toward P-815 Mastocytoma cells after 5 hr was determined as percent of [51Cr]- release from labeled cells as a measure of cell death. at a concentration of 0.331 mM. (expt III); type: functional
[8] = organism: Mus musculus; assay: Toxicity was evaluated for the compound at a concentration of 0.331 mM against […] Mastocytoma.; type: functional
[9] = Compound treated with MPM cell homogenate at pH 3 to isolate compound 4 (ng); type: ADME, cell-based
[10] = Compound treated with MPM cell homogenate at pH 3.5 to isolate compound 4 (ng); type: ADME, cell-based
[11] = Compound treated with MPM cell homogenate at pH 5 to isolate compound 4 (ng); type: ADME, cell-based
[12] = Compound treated with MPM cell homogenate at pH 7 to isolate compound 4 (ng); type: ADME, cell-based
[13] = tested on: MPM; assay: Compound along with 3 mM leupeptin in presence of MPM cells at pH 3 to isolate compound 4 (ng); type: cell-based
[14] = organism: Mus musculus; assay: Cytotoxicity was determined against mouse peritoneal macrophages (MPM) and the percent of LDH released after 24 hr was determined as a measure of cell death at a concentration of 0.375 mM (expt I); type: functional
[15] = Compound treated with MPM cell homogenate at pH 8 to isolate compound 4 (ng); type: ADME, cell-based
[16] = organism: Mus musculus; assay: Cytotoxicity was determined for the compound against mouse peritoneal macrophages (MPM) at a concentration of 0.165 mM.; type: functional
[17] = organism: Mus musculus; assay: Appearance of mouse peritoneal macrophages after 3h of treatment with compound at a concentration of 0.375 mM; vacuoles, rounded; type: functional, organism-based
[18] = tested on: MPM; assay: Compound in absence of MPM cells and in absence of inactivator at pH 8 to isolate compound 4 (ng); type: cell-based
[19] = tested on: MPM; assay: Compound (steam-treated 10 min) in presence of MPM cells at pH 3 to isolate compound 4 (ng); No data; type: cell-based
[20] = organism: Mus musculus; assay: Cytotoxicity was determined against mouse peritoneal macrophages (MPM) and the percent of LDH released after 24 hr was determined as a measure of cell death at a concentration of 0.375 mM (expt II); type: functional
[21] = Compound treated with MPM cell homogenate at pH 4 to isolate compound 4 (ng); type: ADME, cell-based
[22] = Compound treated in absence of MPM cell homogenate at pH 4.5 to isolate compound 4 (ng); type: ADME, cell-based
[23] = tested on: MPM; assay: Compound along with 4 mM pepstatin in presence of MPM cells at pH 3 to isolate compound 4 (ng); type: cell-based
[24] = Compound treated with MPM cell homogenate at pH 5.5 to isolate compound 4 (ng); type: ADME, cell-based
[25] = Compound treated with MPM cell homogenate at pH 6.5 to isolate compound 4 (ng); type: ADME, cell-based
[26] = tested on: MPM; assay: Compound in presence of MPM cells and in absence of inactivator at pH 3 to isolate compound 4 (ng); type: cell-based
[27] = tested on: MPM; assay: Compound along with 10 uM HgCl2 in presence of MPM cells at pH 3 to isolate compound 4 (ng); type: cell-based
[28] = Compound treated with MPM cell homogenate at pH 6 to isolate compound 4 (ng); type: ADME, cell-based
[29] = Compound treated with MPM cell homogenate at pH 7.5 to isolate compound 4 (ng); type: ADME, cell-based
[30] = organism: Mus musculus; assay: Evaluated for the percent inhibition uptake of radiolabeled thymidine as a measure of inhibition of cell division against the SV40-transformed 3T3 cells after 4 hr at the concentration of 6; type: functional, NIH3T3
[31] = organism: Mus musculus; assay: Evaluated for the percent inhibition uptake of radiolabeled thymidine as a measure of inhibition of cell division against the SV40-transformed 3T3 cells after 4 hr at the concentration of 3x10E4M; type: functional, NIH3T3
[32] = organism: Mus musculus; assay: Evaluated for the percent inhibition uptake of radiolabeled thymidine as a measure of inhibition of cell division against the SV40-transformed 3T3 cells after 4 hr at the concentration of 1x10E4M; type: functional, NIH3T3

## O=C(CNC(=O)OCc1ccccc1)N[C@@H](Cc1ccccc1)C(=O)O (Cbz-Gly-Phe-OH)
[1]
  Cr release: 16%

## CCCCCCCCCCCCN(CC(F)(F)F)C(=O)[C@H](Cc1ccccc1)NC(=O)CNC(=O)OCc1ccccc1
[2]
  Activity: 44
[3]
  Activity: 29
[4]
  Activity: 28
[5]
  Activity: < 20
[6]
  Activity: 20
[7]
  Cr release: 11%
[8]
  Toxicity: 200 µg/mL

## CCCCCCCCCCCCN(CC(F)(F)F)C(=O)[C@@H](Cc1ccccc1)NC(=O)CNC(=O)OCc1ccccc1
[9]
  Activity: 92
[2]
  Activity: 30
[10]
  Activity: 79
[11]
  Activity: 30
[12]
  Activity: 34
[3]
  Activity: 36
[4]
  Activity: 20
[13]
  Activity: 23
[14]
  LDH release: 73%
[15]
  Activity: 104
[16]
  Toxicity: 100 µg/mL
[17]
  Activity: vacuoles, rounded
[18]
  Activity: 13
[19]
  Activity: 0
[20]
  LDH release: 61%
[21]
  Activity: 49
[22]
  Activity: < 14
[23]
  Activity: 27
[5]
  Activity: 92 and 36
[6]
  Activity: 24
[24]
  Activity: 22
[7]
  Cr release: 22%
[8]
  Toxicity: 200 µg/mL
[25]
  Activity: 28
[26]
  Activity: 53
[27]
  Activity: 28
[28]
  Activity: 54
[29]
  Activity: 52

## NCC(=O)N[C@H](Cc1ccccc1)C(=O)N(CCCl)CCCl
[30]
  Inhibition uptake: 60%
[31]
  Inhibition uptake: 16%
[32]
  Inhibition uptake: 5%
